Test results reported in paper PMC9827630, “Intra-colony venom diversity contributes to maintaining eusociality in a cooperatively breeding ant” (BMC Biology, 2023).
Where “and” joins values, the source holds several entries; their conditions need not be identical. Equal values may be shown once. Read-outs that look alike come from different tables or passages of the source. Where no end group is shown, it is not given here.

What was measured:
[1] = tested on: Acinetobacter baumannii ATCC 19606; assay: Antimicrobial growth inhibition (CO-ADD); format: cell-based; conditions: for Max response ± SEM: percentage growth inhibition, mean ± SEM; for Max response ± SEM / MIC: absorbance at 600 nm; for MIC: sigmoidal dose-response fit of growth inhibition; for EC50: summary of Table S2
Protocol: (§1) Antimicrobial and cytotoxicity assays were performed by CO-ADD (The Community for Antimicrobial Drug Discovery, Institute for Molecular Bioscience, The University of Queensland). […] Percentage growth inhibition was calculated using negative controls (media only) and positive controls (no peptide). For the hemolysis assays, human whole blood was washed three times with 3 volumes of 0.9% NaCl and then resuspended in 0.9% NaCl to a concentration of 0.5 × 10^8 cells/mL. Cells were incubated for 1 h at 37°C with or without the peptide. After incubation, plates were centrifuged at 1000 g for 10 min to pellet cells and debris and hemolysis determined by measuring the supernatant absorbance at 405 nm.

[2] = tested on: Escherichia coli ATCC 25922; assay: Antimicrobial growth inhibition (CO-ADD); format: cell-based; conditions: absorbance at 600 nm; for Max response ± SEM: percentage growth inhibition, mean ± SEM; for MIC: sigmoidal dose-response fit of growth inhibition
Protocol: as §1

[3] = tested on: Klebsiella pneumoniae ATCC 700603; assay: Antimicrobial growth inhibition (CO-ADD); format: cell-based; conditions: absorbance at 600 nm; for Max response ± SEM: percentage growth inhibition, mean ± SEM; for MIC: sigmoidal dose-response fit of growth inhibition
Protocol: as §1

[4] = tested on: Pseudomonas aeruginosa ATCC 27853; assay: Antimicrobial growth inhibition (CO-ADD); format: cell-based; conditions: absorbance at 600 nm; for Max response ± SEM: percentage growth inhibition, mean ± SEM; for MIC: sigmoidal dose-response fit of growth inhibition
Protocol: as §1

[5] = tested on: Staphylococcus aureus ATCC 43300; assay: Antimicrobial growth inhibition (CO-ADD); format: cell-based; conditions: for Max response ± SEM: percentage growth inhibition, mean ± SEM; for Max response ± SEM / MIC: absorbance at 600 nm; for MIC: sigmoidal dose-response fit of growth inhibition; for EC50: summary of Table S2
Protocol: as §1

[6] = tested on: Candida albicans ATCC 90028; assay: Antifungal growth inhibition (CO-ADD); format: cell-based; conditions: absorbance at 530 nm; for MIC: sigmoidal dose-response fit of growth inhibition; for Max response ± SEM: percentage growth inhibition, mean ± SEM
Protocol: as §1

[7] = tested on: Cryptococcus neoformans var. grubii H99; ATCC 208821; assay: Antifungal growth inhibition (CO-ADD); format: cell-based; conditions: for MIC: sigmoidal dose-response fit of growth inhibition, resazurin read-out; for Max response ± SEM: percentage growth inhibition, difference in absorbance 600 and 570 nm after resazurin, 35°C 2 h, mean ± SEM
Protocol: as §1

[8] = tested on: panel of microbes; assay: Antimicrobial screening, summary over the panel of microbes; format: cell-based
Protocol: as §1

[9] = tested on: Human embryonic kidney cells ATCC CRL-1573; assay: Cytotoxicity assay (CO-ADD), resazurin; format: cell-based; conditions: resazurin fluorescence; for Max response ± SEM: percentage growth inhibition, 37°C 5% CO2, mean ± SEM; for CC50 (concentration at 50% cytotoxicity): sigmoidal dose-response fit
Protocol: as §1

[10] = tested on: Human red blood cells; assay: Hemolysis assay (CO-ADD); format: cell-based; conditions: 1 h at 37°C; for HC50 (concentration at 50% hemolytic activity): absorbance at 405 nm, sigmoidal dose-response fit; for Max response ± SEM: hemolysis, washed human blood 0.5 × 10^8 cells/mL in 0.9% NaCl, supernatant absorbance at 405 nm, mean ± SEM
Protocol: as §1

[11] = tested on: F11 (mouse neuroblastoma × rat dorsal root ganglion (DRG) neuron hybrid) cells; assay: Calcium imaging of F11 cells (FLIPR); format: cell-based; conditions: increase in [Ca2+]i
Protocol: F11 (mouse neuroblastoma × rat dorsal root ganglion (DRG) neuron hybrid) cells were cultured as previously described. Cells were maintained on Ham’s F12 media supplemented with 10 % fetal bovine serum, 100 μM hypoxanthine, 0.4 μM aminopterin, and 16 μM thymidine (Hybri-MaxTM, Sigma Aldrich). 384-well imaging plates (Corning, Lowell, MA, USA) were seeded 48 h prior to imaging resulting in 90 – 95% confluence at imaging. Cells were incubated for 30 min with Calcium 4 assay component A, as per the manufacturer’s instructions (Molecular Devices, Sunnyvale, CA) in physiological salt solution (PSS; composition in mM: 140 NaCl, 11.5 D-glucose, 5.9 KCl, 1.4 MgCl2, 1.2 NaH2PO4, 5 NaHCO3, 1.8 CaCl2, 10 HEPES) at 37°C. […] Signals were read every second for 10 s before, and 300 s after, the addition of peptides in PSS supplemented with 0.1% bovine serum albumin. All data represent mean ± SEM of a representative assay in triplicate. Fluorescence changes on peptide addition were compared to addition of negative control solution (0.1% BSA in PSS). The resulting maximum-minimum fluorescence in the 300 s period after peptide addition was recorded as the response.

[12] = tested on: HEK; assay: Ion permeability HEK; format: cell-based, Human; conditions: ions listed as permeant; - = none
[13] = tested on: F11; assay: Ion permeability F11; format: cell-based, mouse; conditions: ions listed as permeant; - = none
[14] = tested on: HAP1 cells; assay: Cell viability assay, resazurin; format: cell-based
Protocol: In addition to the cytotoxicity assays performed by CO-ADD, we screened the synthetic peptides for toxicity in cell viability assays using HAP1, MM96L, and HEK293T cells. peptides were reconstituted in 100% DMSO then diluted in cell media (HAP1: IMDM (Sigma Aldrich) with 10% FBS and 1% Penicillin/Streptomycin (P/S); MM96L: RPMI (Gibco) with 10% FBS, 1% P/S and 1% GlutaMAX (Gibco); HEK293T: DMEM high glucose (Gibco), with 10% FBS and 1% P/S. Trypsinized cells ([…]) were seeded in each well of a 96-well plate. 0.01 to 1000 μM peptide was added to each well after 24 h, and the cells incubated for an additional 74 h. After incubation, the medium was aspirated from each well and 150 μL of fresh medium containing a 0.002% solution of resazurin (Sigma-Aldrich) was added to the wells and incubated for 4 h at 37 °C. The absorbance was measured at 570 nm using a microplate spectrophotometer (FLUOstar Omega, BMG Labtech, Germany). Percentage cell viability at concentrations of 10 and 100 μM peptide were compared with negative control by one-way ANOVA Dunnett’s multiple comparisons test (GraphPad Prism8).

[15] = tested on: Female fruit flies (D. melanogaster strain Canton-S); assay: Fruit fly injection assay (lethality, paralysis, climbing); format: in vivo, Drosophila melanogaster; conditions: 5 nmol/g injected, climbing assay 5 min after injection; significant versus control
Protocol: Female fruit flies (D. melanogaster strain Canton-S) were injected four to six days post-emergence. Female flies were used because their larger size makes injection easier. Groups of eight female flies were assayed in triplicate for each dose tested. Injection needles were formed from glass capillary tubes (#3-000-203-G/X, Drummond, Birmingham, AL, USA) using a micropipette puller (Sutter Instrument Co. Model P-97), with the fine tip manually trimmed afterwards using scissors. Needles then were filled with mineral oil, connected to a Nanoliter 2000 microinjector ([…], Bensenville, IL USA) equipped with a foot pedal, and ~1 μL of peptide solution or water aspirated. Each group of flies were immobilized by cooling for approximately 2 min on ice, and then decanted on the top of the ‘injection stage’, a petri dish filled with ice. Under a dissecting microscope, each fly was carefully impaled on the lateral thorax behind the wing, and 50.6 nL of venom peptide or water was injected. After injection, each group of flies were returned to their 5 mL plastic tube at room temperature and their behavior observed.

[16] = all strains of the panel (for Rm54a and Rm55a: strains other than S. aureus)
[17] = max-min fluorescence over 300 s, read-out: EC50 (F11 cells, Table S2)

Row | Substance | Max response ± SEM [1] | MIC [1] [µM] | Max response ± SEM [2] | MIC [2] [µM] | Max response ± SEM [3] | MIC [3] [µM] | Max response ± SEM [4] | MIC [4] [µM] | Max response ± SEM [5] | MIC [5] [µM] | MIC [6] [µM] | MIC [7] [µM] | Growth inhibition over the microbial strains examined [8, 16] | Max response ± SEM [6] | Max response ± SEM [7] | Max response ± SEM [9] | CC50 (concentration at 50% cytotoxicity) [9] | HC50 (concentration at 50% hemolytic activity) [10] | ion permeability HEK [12] | ion permeability F11 [13] | other results
1 | FWLKGGRGDG-NH2 [Rm53a/b] | 5 ± 1 and 4 ± 2 | >29 | 4 ± 1 and 3 ± 1 | >29 | 5 ± 0 | >29 | 12 ± 4 and 11 ± 5 | >29 | 5 ± 1 and 7 ± 2 | >29 | >29 | >29 | no inhibitory activity |  |  |  |  |  |  |  | 
2 | FLPFLIPVIASLVSSLK-NH2 [Rm55a] | 24 ± 1 | >17 | 4 ± 1 | >17 | 8 ± 1 | >17 | 10 ± 1 | >17 | 103 ± 2 | ≤0.14 | >17 | >17 | not affecting any of the other strains examined | 3 ± 0 | -10 ± 0 | 51 ± 0 | >17 (CC50) uM | >17 (HC50) uM | Ca2+,Na+ | Ca2+,Na+,Th+ | Inhibition of S. aureus (in words) [5]: complete inhibition; EC50 [5]: ≤ 140 nM; Max response ± SEM [10]: 15 ± 6; EC50 ([11]; max – min fluorescence, n = 3, four-parameter Hill equation, read-out: EC50 (effect on F11 cells, Fig. 5)): 9.2 µM; Cytotoxicity to HAP cells [14]: cytotoxic to HAP cells; HAP cell viability ([14]; 100 μM peptide, n = 3, mean ± SEM): 24.6 ± 8.1%
3 | FIGGLIKFIAKFVPKILPFFQKKN-OH [Rm34a] | 100 ± 0 | ≤0.09 | 98 ± 0 | 8.6 | 70 ± 28 | 11 | 85 ± 6 | 11 | 102 ± 2 | ≤0.09 | 0.72 | 6.1 | complete or near-complete growth inhibition of all microbial strains | 100 ± 2 | 101 ± 0 | 57 ± 5 | 1.7 µM | 3.3 µM | Ca2+,Na+,Th+ | Ca2+,Na+,Th+ | EC50 [1]: ≤ 90 nM; EC50 [5]: ≤ 90 nM; EC50 [11, 17]: 4.8 µM; Motor behavior (climbing assay) [15]: disrupted motor behavior; Cytotoxicity to HAP cells [14]: cytotoxic to HAP cells; HAP cell viability ([14]; 10 μM peptide, n = 3 per group): significantly reduced HAP cell viability
4 | ALWDTIKKWVAKVLPLVKNALK-NH2 [Rm20a] | 100 ± 1 | ≤0.10 | 100 ± 0 | 13 | 71 ± 29 | >13 | 14 ± 2 | >13 | 102 ± 2 | 1.6 | >13 | 0.79 |  | 8 ± 7 | 88 ± 1 | 57 ± 5 | 11 µM | >13 (HC50) uM | Ca2+,Na+,Th+ | Ca2+,Na+,Th+ | EC50 [1]: ≤ 100 nM; EC50 [11, 17]: 8.1 µM; Cytotoxicity to HAP cells [14]: cytotoxic to HAP cells; HAP cell viability ([14]; 10 μM peptide, n = 3 per group): significantly reduced HAP cell viability; Growth inhibition over the microbial strains examined ([8]; all microbial strains except Pseudomonas aeruginosa and Candida albicans): complete or near-complete growth inhibition of all microbial strains
5 | ILPALIPVFASLLPWAIKKF-NH2 [Rm55b] | 98 ± 0 | 14 | 11 ± 1 | >14 | 12 ± 1 | >14 | 3 ± 1 | >14 | 103 ± 1 | ≤0.11 | >14 | 11 |  | 3 ± 0 | 86 ± 4 | 98 ± 1 | 2.6 µM | 7.4 µM | Ca2+,Na+,Th+ | Ca2+,Na+,Th+ | Max response ± SEM [10]: 40 ± 3; EC50 [11, 17]: 4 µM; Motor behavior (climbing assay) [15]: disrupted motor behavior; Cytotoxicity to HAP cells [14]: cytotoxic to HAP cells; HAP cell viability ([14]; 10 μM peptide, n = 3 per group): significantly reduced HAP cell viability
6 | RNVPRWFTPRL-NH2 [Rm52d] | 5 ± 2 | >22 | 1 ± 2 | >22 | 5 ± 0 | >22 | 7 ± 0 | >22 | 12 ± 6 | >22 | >22 | >22 | no inhibitory activity | 2 ± 1 | -13 ± 5 |  |  |  |  |  | 
